Values of other authors, collected in patent US8071770B2, “Spirohydantoin aryl CGRP receptor antagonists” (Merck Sharp & Dohme Corp., priority 2005, dated 2011).
Ends that are not written are not given here.

Key:
[1] = system: facial blood flow; details: marmoset, electrical stimulation of the trigeminal ganglion (Doods et al. 2000)
[2] = system: middle meningeal artery; details: rats, electrical stimulation of the dura mater, prior administration (Williamson et al. 1997)
[3] = system: facial blood flow; details: rat, trigeminal ganglion stimulation (Escott et al. 1995)

| Molecule | effect on increase in facial blood flow [1] | effect on increase of middle meningeal artery diameter [2] | effect on increase of facial blood flow [3] |
| --- | --- | --- | --- |
| NCCCC[C@H](NC(=O)[C@@H](Cc1cc(Br)c(O)c(Br)c1)NC(=O)N1CCC(N2Cc3ccccc3NC2=O)CC1)C(=O)N1CCN(c2ccncc2)CC1 [BIBN4096BS] | blocked | – | – |
| CGRP (8-37): a fragment of CGRP that lacks seven N-terminal amino acid residues; a peptide CGRP antagonist (VTHRLAGLLSRSGGVVKNNFVPTNVGSKAF; ends and bridges not checked; UniProt P06881 90-119, looked up, fragment) | – | blocked | inhibited |
